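Dose response: 5 concentrations. Exposure: 48 h. Format: 96-well plates. Endpoint: linear interpolation; highest concentration if not reached. GI50: concentration for 50% inhibition of growth. TGI: total growth inhibition.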
Legend:
Assay in all cases: growth of human tumour cells (NCI), 48 h
786-0 renal = system: 786-0 renal
A498 renal = system: A498 renal
A549 NSCLC = system: A549 NSCLC
ACHN renal = system: ACHN renal
BT-549 breast = system: BT-549 breast
CAKI-1 renal = system: CAKI-1 renal
CCRF-CEM leukemia = system: CCRF-CEM leukemia
COLO 205 colon = system: COLO 205 colon
DU-145 prostate = system: DU-145 prostate
EKVX NSCLC = system: EKVX NSCLC
HCC-2998 colon = system: HCC-2998 colon
HCT-116 colon = system: HCT-116 colon
HCT-15 colon = system: HCT-15 colon
HL-60(TB) leukemia = system: HL-60(TB) leukemia
HOP-62 NSCLC = system: HOP-62 NSCLC
HOP-92 NSCLC = system: HOP-92 NSCLC
HS 578T breast = system: HS 578T breast
HT29 colon = system: HT29 colon
IGROV1 ovarian = system: IGROV1 ovarian
K-562 leukemia = system: K-562 leukemia
KM12 colon = system: KM12 colon
LOX IMVI melanoma = system: LOX IMVI melanoma
M14 melanoma = system: M14 melanoma
MALME-3M melanoma = system: MALME-3M melanoma
MCF7 breast = system: MCF7 breast
MDA-MB-231 breast = system: MDA-MB-231 breast
MDA-MB-435 = system: MDA-MB-435
MOLT-4 leukemia = system: MOLT-4 leukemia
NCI-H226 lung = system: NCI-H226 lung

## O=C(NNc1nc2cc(F)ccc2n2c(CO)ccc12)c1cnccn1
786-0 renal
  GI50: 387 nM
  TGI: 11900 nM
A498 renal
  GI50: 1160 nM
  TGI: 4990 nM
A549 NSCLC
  GI50: 471 nM
  TGI: > 55800 nM
ACHN renal
  GI50: 111 nM
  TGI: 12200 nM
BT-549 breast
  GI50: 667 nM
CAKI-1 renal
  GI50: 281 nM
  TGI: > 100000 nM
CCRF-CEM leukemia
  GI50: 395 nM
  TGI: > 60400 nM
COLO 205 colon
  GI50: 368 nM
  TGI: > 38500 nM
DU-145 prostate
  GI50: 780 nM
  TGI: > 100000 nM
EKVX NSCLC
  GI50: 408 nM
  TGI: > 57200 nM
HCC-2998 colon
  GI50: 568 nM
  TGI: > 100000 nM
HCT-116 colon
  GI50: 345 nM
  TGI: > 42900 nM
HCT-15 colon
  GI50: 69.1 nM
  TGI: > 45700 nM
HL-60(TB) leukemia
  GI50: 435 nM
  TGI: > 38000 nM
HOP-62 NSCLC
  GI50: 344 nM
  TGI: > 32800 nM
HOP-92 NSCLC
  GI50: 1400 nM
  TGI: 63800 nM
HS 578T breast
  GI50: 4310 nM
  TGI: > 100000 nM
HT29 colon
  GI50: 552 nM
  TGI: > 100000 nM
IGROV1 ovarian
  GI50: 509 nM
  TGI: 29500 nM
K-562 leukemia
  GI50: 508 nM
  TGI: > 100000 nM
KM12 colon
  GI50: 432 nM
  TGI: > 100000 nM
LOX IMVI melanoma
  GI50: 317 nM
  TGI: 4080 nM
M14 melanoma
  GI50: 292 nM
  TGI: 4050 nM
MALME-3M melanoma
  GI50: 1070 nM
  TGI: 20200 nM
MCF7 breast
  GI50: 541 nM
  TGI: 36000 nM
MDA-MB-231 breast
  GI50: 633 nM
  TGI: > 100000 nM
MDA-MB-435
  GI50: 712 nM
  TGI: > 100000 nM
MOLT-4 leukemia
  GI50: 407 nM
  TGI: > 100000 nM
NCI-H226 lung
  GI50: 367 nM

— PubChem BioAssay (NCI)
